How the values were obtained:
[1] = system: atrial fibrillation (AF) in anesthetized thoracotomy dog; test: Effect of termination and prevention of atrium fibrillation (AF) in anesthetized thoracotomy dog; type: in vivo; settings: samples with effect / samples tested
Description: (1) An anesthetized thoracotomy dog was used for the present experiment. After opening brisket at a median line and cutting epicardium, bipolar electrodes for determination of a potential wave form were respectively stitched at the free walls of right and left atriums. Further, a wire electrode was inserted in the free wall of a right atrium to be fixed and used for electrical simulation. After cutting cervix at a median line, right and left vagal nerves were peeled. Wire electrodes for stimulating vagal nerves were inserted along the surface layers of the respective both sides to be fixed and used as stimulation for vagal nerves.
(2) Electrical stimulation was carried out under conditions: a stimulation duration of 0.1 mess; a x stimulation frequency of 20 Hz; and a stimulation intensity of 3 to 7 V. After 5 minutes of the start of the stimulation, high frequency stimulation (10 Hz, 1 sec) was applied to the right atrium, and the induction of atrial fibrillation (hereinafter, abbreviated as “AF”) was tried. The stimulation intensity of high frequency stimulation of the right atrium was carried out from 1.0 V, and when AF was not induced, induction was tried by increasing the stimulation intensity to 5.0 V. After AF was induced, observation for 30 minutes was carried out, it was confirmed that AF is kept (control experiment). Further, when AF induced was not kept for 30 minutes, the experiment was stopped.
(3) After confirming that AF was kept for 30 minutes or more in the control experiment, the stimulation of vagal nerve was intercepted, and the dog was rested for about one hour to be recovered. After that, similarly, AF was induced again. Further, the stimulation of vagal nerve at this time was carried out at the higher stimulation intensity by about 2 V than at the control experiment. After 5 minutes of the induction of AF, the administration of a tested substance was carried out. The tested substance was administered intravenously over 5 minutes. After completion of the administration, observation was carried out for 5 minutes, and when the termination of AF was not observed, the dose was increased and the observation was similarly carried out. When AF was stopped, the induction of AF was tried again just after termination. At this time, when AF which was continued for one minute or more was induced again, it was judged as no effect of prevention, and experiment was similarly carried out by increasing the dose.
In the Table, the number of the denominator indicates the number of the sample used for test, and the number of the numerator indicates the number of the sample in which the effect was confirmed.

[2] = system: atrial muscle of anesthetized thoracotomy dog; test: Effective refractory period (ERP) in anesthetized thoracotomy dog; type: in vivo; settings: for Measurement Value of ERP: mean
Description: (1) An anesthetized thoracotomy dog was used for the present experiment. After opening brisket at a median line and cutting epicardium, bipolar electrodes for determination of a potential wave form were respectively stitched at the free walls of right and left atriums. Further, a wire electrode was inserted in the free wall of a right atrium to be fixed and used for electrical simulation.
(2) A program electrical stimulation equipment was connected with the electrode for electrical stimulation at the right atrium, the electrical stimulation was carried out at a stimulation periodical length of 500 mess, and a threshold for the electrical stimulation was measured. The electrical stimulation intensity for the experiments below was set to carry out stimulation at 3-fold of this threshold. However, when the threshold was 0.7 V or less, the electrical stimulation was carried out at 2.0 V. Effective refractory period (ERP) provided early premature stimulation (S2) after the basic stimulation (S1) of 10 times, and the longest linking period in which atrium potential was not generated by the premature stimulation was referred to as ERP, while shortening the linking period (S1-S2) by 5 mess. Similar experiments were also carried out for the respective basic stimulation length (BCL) of 400, 300, 250 and 200 mess (control experiment: 1 series). After carrying out 2 times or more of the control experiments and confirming that ERP was stable, the tested substance was subsequently administered, and similar measurement was carried out. After the tested substance was administered once intravenously for 5 minutes, its keeping dose was subsequently administered intravenously. After 10 minutes of the administration start of the keeping dose, ERP was measured in the respective stimulation frequency. After completion of the one series of measurements, the concentration of the tested substance was increased and the similar experiments were repeated. The ERP and conduction time in the atrium in the respective stimulation frequency were compared with various indices under control condition. The result is shown by mean.

Structure (SMILES): CS(=O)(=O)c1ccsc1CCC1CCN(Cc2ccc[nH]c2=O)CC1 [Example 135, 1-[(2-Oxo-1,2-dihydro-3-pyridinyl)methyl]-4-[2-(3-methylsulfonyl-2-thienyl)ethyl]piperidine]
- the termination effect ([1]; dose 0.3 mg/kg intravenously over 5 minutes): 1/3
- the prevention effect ([1]; dose 0.3 mg/kg intravenously): 1/1
- the termination effect ([1]; dose 1 mg/kg intravenously over 5 minutes): 2/2
- the prevention effect ([1]; dose 1 mg/kg intravenously): 2/2
- Measurement Value of ERP ([2]; dose 0.1 mg/kg intravenously, BCL 200 msec): 125.0 ms
- Measurement Value of ERP ([2]; dose 0.1 mg/kg intravenously, BCL 250 msec): 138.3 ms
- Measurement Value of ERP ([2]; dose 0.1 mg/kg intravenously, BCL 300 msec): 155.0 ms
- Measurement Value of ERP ([2]; dose 0.1 mg/kg intravenously, BCL 400 msec): 170.0 ms
- Measurement Value of ERP ([2]; dose 0.1 mg/kg intravenously, BCL 500 msec): 178.3 ms
- Percent change in ERP versus pre-dose control ([2]; dose 0.1 mg/kg, BCL 200 msec): 7.1%
- Percent change in ERP versus pre-dose control ([2]; dose 0.1 mg/kg, BCL 250 msec): 3.9%
- Percent change in ERP versus pre-dose control ([2]; dose 0.1 mg/kg, BCL 300 msec): 5.7%
- Percent change in ERP versus pre-dose control ([2]; dose 0.1 mg/kg, BCL 400 msec): 3.0%
- Percent change in ERP versus pre-dose control ([2]; dose 0.1 mg/kg, BCL 500 msec): 3.1%
- Measurement Value of ERP ([2]; dose 0.3 mg/kg intravenously, BCL 200 msec): 138.3 ms
- Measurement Value of ERP ([2]; dose 0.3 mg/kg intravenously, BCL 250 msec): 150.0 ms
- Measurement Value of ERP ([2]; dose 0.3 mg/kg intravenously, BCL 300 msec): 166.7 ms
- Measurement Value of ERP ([2]; dose 0.3 mg/kg intravenously, BCL 400 msec): 181.7 ms
- Measurement Value of ERP ([2]; dose 0.3 mg/kg intravenously, BCL 500 msec): 190.0 ms
- Percent change in ERP versus pre-dose control ([2]; dose 0.3 mg/kg, BCL 200 msec): 18.6%
- Percent change in ERP versus pre-dose control ([2]; dose 0.3 mg/kg, BCL 250 msec): 12.6%
- Percent change in ERP versus pre-dose control ([2]; dose 0.3 mg/kg, BCL 300 msec): 13.7%
- Percent change in ERP versus pre-dose control ([2]; dose 0.3 mg/kg, BCL 400 msec): 10.1%
- Percent change in ERP versus pre-dose control ([2]; dose 0.3 mg/kg, BCL 500 msec): 9.8%
- Measurement Value of ERP ([2]; dose 1 mg/kg intravenously, BCL 250 msec): 183.3 ms
- Measurement Value of ERP ([2]; dose 1 mg/kg intravenously, BCL 300 msec): 195.0 ms
- Measurement Value of ERP ([2]; dose 1 mg/kg intravenously, BCL 400 msec): 203.3 ms
- Measurement Value of ERP ([2]; dose 1 mg/kg intravenously, BCL 500 msec): 208.3 ms
- Percent change in ERP versus pre-dose control ([2]; dose 1 mg/kg, BCL 250 msec): 37.9%
- Percent change in ERP versus pre-dose control ([2]; dose 1 mg/kg, BCL 300 msec): 33.2%
- Percent change in ERP versus pre-dose control ([2]; dose 1 mg/kg, BCL 400 msec): 23.4%
- Percent change in ERP versus pre-dose control ([2]; dose 1 mg/kg, BCL 500 msec): 20.6%
